Experiments:
[1] = species: Mus musculus; assay: Antagonistic activity against Scopolamine induced behavioral deficits in mice; 3/9; type: functional
[2] = tested on: Mus musculus; assay: Antagonistic activity against Scopolamine induced behavioral deficits in mice at dose 0.02 mg/kg sc; type: functional; conditions: route subcutaneous
[3] = tested on: Mus musculus; assay: Antagonistic activity against Scopolamine induced behavioral deficits in mice at dose 0.04 mg/kg sc; type: functional; conditions: route subcutaneous
[4] = target: Muscarinic acetylcholine receptor; type: cell membranes, Membrane
Description: Inhibition of [3H]quinuclidinyl benzilate (QNB) binding from rat forebrain membranes in the presence of Zn

[5] = target: T1, Acetylcholinesterase (Rattus norvegicus, UniProt P37136)
T1 sequence (P37136 whole entry): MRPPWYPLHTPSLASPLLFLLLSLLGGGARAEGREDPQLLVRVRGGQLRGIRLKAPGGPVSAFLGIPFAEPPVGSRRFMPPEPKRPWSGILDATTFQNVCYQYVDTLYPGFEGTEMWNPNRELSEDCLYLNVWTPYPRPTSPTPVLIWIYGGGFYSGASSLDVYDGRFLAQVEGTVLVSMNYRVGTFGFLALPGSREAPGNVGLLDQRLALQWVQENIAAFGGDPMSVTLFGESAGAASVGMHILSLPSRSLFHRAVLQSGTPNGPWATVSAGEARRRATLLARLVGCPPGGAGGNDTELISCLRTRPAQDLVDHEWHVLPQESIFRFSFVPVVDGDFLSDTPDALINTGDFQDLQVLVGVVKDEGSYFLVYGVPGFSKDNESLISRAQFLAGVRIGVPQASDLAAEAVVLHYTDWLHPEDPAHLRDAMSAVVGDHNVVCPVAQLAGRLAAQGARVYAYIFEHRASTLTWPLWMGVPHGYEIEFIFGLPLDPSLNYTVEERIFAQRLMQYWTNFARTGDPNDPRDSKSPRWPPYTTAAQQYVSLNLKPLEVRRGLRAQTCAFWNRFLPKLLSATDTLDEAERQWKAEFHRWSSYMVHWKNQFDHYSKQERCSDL
Description: Inhibitory activity against acetylcholinesterase in rat striatal preparation

[6] = target: Sodium-dependent noradrenaline transporter (Homo sapiens, UniProt P23975)
Sodium-dependent noradrenaline transporter, sequence (P23975 whole entry): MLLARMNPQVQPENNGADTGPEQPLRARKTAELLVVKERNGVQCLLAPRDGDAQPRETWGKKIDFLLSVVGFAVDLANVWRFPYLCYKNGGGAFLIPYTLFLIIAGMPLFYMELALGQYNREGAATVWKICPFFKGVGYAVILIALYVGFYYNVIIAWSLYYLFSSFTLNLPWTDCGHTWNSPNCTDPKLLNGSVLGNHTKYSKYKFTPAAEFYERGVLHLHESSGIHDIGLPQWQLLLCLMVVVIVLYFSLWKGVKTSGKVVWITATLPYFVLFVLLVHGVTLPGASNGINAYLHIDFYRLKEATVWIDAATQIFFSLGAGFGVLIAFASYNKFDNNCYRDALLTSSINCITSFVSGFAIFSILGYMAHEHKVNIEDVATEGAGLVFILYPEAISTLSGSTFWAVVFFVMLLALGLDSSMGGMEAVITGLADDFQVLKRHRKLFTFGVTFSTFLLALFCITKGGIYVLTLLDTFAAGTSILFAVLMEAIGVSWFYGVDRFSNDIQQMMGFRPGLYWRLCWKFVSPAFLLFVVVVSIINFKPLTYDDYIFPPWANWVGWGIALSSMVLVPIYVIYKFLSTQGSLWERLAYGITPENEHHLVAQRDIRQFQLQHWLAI
Description: Inhibitory activity against norepinephrine (NE) uptake in rat whole brain synaptosome preparation

[7] = species: Mus musculus; assay: animal or person
Description: Effective dose against administration in mice

[8] = tested on: Mus musculus; assay: Antagonistic activity against Scopolamine induced behavioral deficits in mice at dose 0.16 mg/kg sc; type: functional; conditions: route subcutaneous
[9] = target: T2, Adrenergic receptor alpha-2 (Rattus norvegicus, UniProt P22086+P19328+P22909); assay: Inhibitory activity against [3H]-idazoxan binding to Alpha-2 adrenergic receptor in rat cortex
T2 sequence (P22086 whole entry): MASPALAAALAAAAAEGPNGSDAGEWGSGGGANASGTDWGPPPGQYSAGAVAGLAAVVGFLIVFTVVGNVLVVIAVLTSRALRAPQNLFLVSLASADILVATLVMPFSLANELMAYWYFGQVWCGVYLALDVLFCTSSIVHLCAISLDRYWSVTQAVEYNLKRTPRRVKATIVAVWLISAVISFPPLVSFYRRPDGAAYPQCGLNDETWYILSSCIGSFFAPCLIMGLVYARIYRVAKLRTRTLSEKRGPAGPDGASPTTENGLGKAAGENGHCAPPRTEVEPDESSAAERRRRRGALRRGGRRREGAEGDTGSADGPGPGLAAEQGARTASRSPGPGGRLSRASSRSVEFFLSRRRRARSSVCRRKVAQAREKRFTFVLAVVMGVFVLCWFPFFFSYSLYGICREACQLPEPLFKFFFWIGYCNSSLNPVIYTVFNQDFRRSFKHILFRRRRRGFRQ
T2 sequence (P19328 whole entry): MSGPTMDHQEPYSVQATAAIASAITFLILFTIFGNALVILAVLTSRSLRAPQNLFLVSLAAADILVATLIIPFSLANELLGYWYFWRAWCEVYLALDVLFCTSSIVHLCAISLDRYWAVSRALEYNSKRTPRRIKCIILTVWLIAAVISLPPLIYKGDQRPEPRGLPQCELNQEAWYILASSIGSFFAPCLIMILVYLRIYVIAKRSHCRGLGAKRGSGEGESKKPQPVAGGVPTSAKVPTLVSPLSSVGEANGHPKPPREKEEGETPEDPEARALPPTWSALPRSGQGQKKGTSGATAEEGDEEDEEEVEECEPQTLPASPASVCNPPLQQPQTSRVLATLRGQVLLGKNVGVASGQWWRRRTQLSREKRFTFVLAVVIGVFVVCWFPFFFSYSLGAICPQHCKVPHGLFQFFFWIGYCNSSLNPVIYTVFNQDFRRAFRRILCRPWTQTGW
T2 sequence (P22909 whole entry): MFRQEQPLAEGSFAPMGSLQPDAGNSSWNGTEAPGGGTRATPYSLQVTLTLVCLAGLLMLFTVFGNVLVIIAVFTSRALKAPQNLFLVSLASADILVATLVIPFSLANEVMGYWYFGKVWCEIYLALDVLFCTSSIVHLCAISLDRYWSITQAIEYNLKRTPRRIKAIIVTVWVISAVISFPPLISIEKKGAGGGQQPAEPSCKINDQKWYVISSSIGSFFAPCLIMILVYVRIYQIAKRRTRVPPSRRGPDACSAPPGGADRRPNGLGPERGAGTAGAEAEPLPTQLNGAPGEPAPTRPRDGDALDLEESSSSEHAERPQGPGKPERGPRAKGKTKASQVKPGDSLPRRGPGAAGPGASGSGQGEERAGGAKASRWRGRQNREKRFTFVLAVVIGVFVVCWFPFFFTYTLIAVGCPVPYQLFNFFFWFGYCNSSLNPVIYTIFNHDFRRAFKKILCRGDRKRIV

[10] = target: T2, Adrenergic receptor alpha-2; assay: Inhibitory activity against [3H]idazoxan binding to Alpha-2 adrenergic receptor in rat cortex, in the presence of GPP
[11] = target: Muscarinic acetylcholine receptor; assay: Inhibitory activity against [3H]oxotremorine-M binding to muscarinic receptors in rat forebrain membrane; type: cell membranes
[12] = target: T3, Muscarinic acetylcholine receptor M2 (Rattus norvegicus, UniProt P10980); assay: Inhibitory activity against [3H]N-methyl-scopolamine binding to Muscarinic acetylcholine receptor M2 in rat cerebellum; type: tissue-based
T3 sequence (P10980 whole entry): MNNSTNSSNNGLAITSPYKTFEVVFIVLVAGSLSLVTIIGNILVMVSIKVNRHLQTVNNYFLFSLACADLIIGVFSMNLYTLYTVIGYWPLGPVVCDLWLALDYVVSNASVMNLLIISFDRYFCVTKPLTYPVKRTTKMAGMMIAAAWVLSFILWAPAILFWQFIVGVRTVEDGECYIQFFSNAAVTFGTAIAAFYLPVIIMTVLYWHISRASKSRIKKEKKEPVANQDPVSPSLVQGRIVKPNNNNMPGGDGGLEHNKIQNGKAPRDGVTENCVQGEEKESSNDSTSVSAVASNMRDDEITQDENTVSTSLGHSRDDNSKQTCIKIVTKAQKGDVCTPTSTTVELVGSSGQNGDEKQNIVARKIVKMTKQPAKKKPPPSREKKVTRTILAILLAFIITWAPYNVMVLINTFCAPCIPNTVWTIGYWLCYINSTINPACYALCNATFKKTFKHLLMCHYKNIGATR

[13] = target: T3, Muscarinic acetylcholine receptor M2; assay: Inhibitory activity against [3H]N-methyl-scopolamine in rat Muscarinic acetylcholine receptor M2 cerebellum in the presence GPP(NH)P; type: tissue-based
[14] = target: Mu-type opioid receptor (Rattus norvegicus, UniProt P33535); assay: Inhibitory activity against [3H]DHM binding to mu opioid receptor in rat whole brain
Mu-type opioid receptor, sequence (P33535 whole entry): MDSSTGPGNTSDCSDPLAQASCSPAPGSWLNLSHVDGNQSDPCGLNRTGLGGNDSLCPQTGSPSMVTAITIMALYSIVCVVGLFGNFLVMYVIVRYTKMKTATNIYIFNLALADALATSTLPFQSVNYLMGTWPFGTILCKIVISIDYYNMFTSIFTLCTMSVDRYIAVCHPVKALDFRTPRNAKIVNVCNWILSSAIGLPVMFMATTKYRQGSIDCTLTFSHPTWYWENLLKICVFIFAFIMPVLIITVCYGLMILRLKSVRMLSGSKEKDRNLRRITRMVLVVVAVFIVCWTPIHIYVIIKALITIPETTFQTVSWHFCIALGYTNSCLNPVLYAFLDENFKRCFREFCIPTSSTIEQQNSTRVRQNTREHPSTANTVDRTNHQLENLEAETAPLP

CN(c1ccncc1)n1ccc2ccccc21
Antagonism [1]: 3
Response [2]: 33%
Response [3]: 53%
IC50 [4]: 5.1 µM
IC50 [5]: > 100 µM
IC50 [6]: 1 µM
ED50 [7]: 3.5 mg/kg

c1ccc2c(c1)ccn2Nc1ccncc1
Antagonism [1]: 3
Response [2]: 27%
Response [8]: 23%
IC50 [4]: 16 µM
IC50 [5]: > 100 µM
IC50 [6]: 2.5 µM
ED50 [7]: 3 mg/kg

CCCN(c1ccncc1)n1ccc2ccccc21 [BESIPIRDINE]
IC50 [9]: 0.47 µM
IC50 [10]: 0.14 µM
Response [2]: 24%
Response [3]: 30%
Response [8]: 27%
IC50 [4]: 0.94 µM
IC50 [11]: 0.46 µM
IC50 [12]: 1 µM
IC50 [13]: 0.65 µM
IC50 [14]: > 1 µM
IC50 [5]: > 100 µM
IC50 [6]: 0.43 µM
ED50 [7]: 3.1 mg/kg

Reference: ChEMBL document CHEMBL1129670, “Synthesis and structure-activity relationships of N-propyl-N-(4-pyridinyl)-1H-indol-1-amine (besipirdine) and related analogs as potential therapeutic agents for Alzheimer's disease” (J Med Chem, 1996)
